# Data: US7947707B2, “Nitrogenated heterocyclic compound and pharmaceutical composition comprising the same” (Kissei Pharmaceutical Co., Ltd., priority 2005, dated 2011)
# Tested on: potassium oxonate induced hyperuricemia
# Assay: Blood hypouricemic effect, potassium oxonate induced hyperuricemia
# Format: in vivo
# Conditions: Rattus norvegicus, po; 10 mg/kg orally; male SD rats; serum 2 hours after administration; read-out: Decrease (%) in UA concentration
# Protocol: Effect of compound of the present invention as a test compound was studied on potassium oxonate induced hyperuricemia with male 7-week-old SD rats (Charles River Japan) and potassium oxonate (Aldrich) suspended in 1% gum arabic solution. Test compound was suspended in 0.5% CMC-Na solution, and then administered orally. Dosing was 10 mg/kg or 50 mg/kg. All volume of administered solution was 10 mL/kg. Potassium oxonate 250 mg/kg was administered to dorsal region of rats subcutaneously, 1 hour later each test compound was administered orally. For control group, only 0.5% CMC-Na solution as a vehicle was administrated. At 2 hours after administration of test compounds or vehicle, blood was collected under ether anesthesia, and serum was separated according to general method. Treated number was 5 for each group.
# Measurement of concentration of uric acid was conducted with following prepared reagents. The deproteinization reagent was prepared in the following manner; 100 g of sodium tungstate was added to a 2 L flask, and exactly 75 mL of 85% phosphoric acid and 500 mL of water were added to the flask equipped with a reflux condenser, and heated for an hour. After cooling, the resulting faint yellow-green solution was diluted to 1 L exactly. Sodium carbonate-urea reagent was prepared in the following manner; 14 g of anhydrous sodium carbonate and 14 g of urea were dissolved in water and final volume of the solution was adjusted to 100 mL exactly. Phosphotungstic coloring reagent was prepared in 4-fold dilution of deproteinzation reagent described above with water. UA standard solution (10 mg/dL: Kyokuto pharmaceutical industrial CO., LTD) was used as an uric acid standard solution, and then serially diluted uric acid standard solution with purified water was also used for standard curve.
# Three hundred μL of serum or standard was added to 2.1 mL of purified water, and then 150 μL of deproteination reagent was also added to the solution, followed by mixing. After incubating for 20 minutes, the mixture was centrifuged at 3000 rpm for 10 minutes. Sodium carbonate-urea reagent (0.5 mL) was added to 1.5 mL of supernatant, and the mixture was incubated for 20 minutes. Next, after addition of 250 μL of coloring reagent, further incubation was carried over 15 minutes. Absorbance at 660 nm was measured, and concentration of uric acid was calculated with standard curve. Percent decrease in concentration of uric acid was calculated by following formula. Percent decrease in concentration of uric acid (%)=(A−B)/A×100
# In formula, A means average of concentration of blood uric acid in control group, B means average of concentration of blood uric acid in test compounds-treated group.
row,SMILES,inhibition in vivo at 10 mg/kg [%]
1,Cc1ccsc1-c1cn(-c2ccc(C(=O)O)cc2)cc1C#N [XO-B407],76.9
2,N#Cc1cn(-c2ccc(C(=O)O)cc2)nc1-c1ccsc1 [XO-TT571],62
3,N#Cc1cn(-c2ccc(C(=O)O)cc2)cc1-c1cccs1 [XO-B401],78.8
4,N#Cc1cn(-c2ccc(C(=O)O)cc2)cc1-c1ccc2c(c1)OCCO2 [XO-B434],63.2
5,N#Cc1cn(-c2ccc(C(=O)O)cc2)cc1-c1ccsc1 [XO-B418],79.1

# Same assay, conditions: Rattus norvegicus, po; 50 mg/kg orally; male SD rats; serum 2 hours after administration; read-out: Decrease (%) in UA concentration
row,SMILES,inhibition in vivo at 50 mg/kg [%]
1,Cc1ccc2c(c1)c(C#N)cn2-c1ccc(C(=O)O)cc1 [XO-CH164],51.4

# Biological target: T1, HEK293 cells forced to express URAT1 (Homo sapiens, UniProt Q96S37)
# T1 construct: host or cells: HEK293
# T1 sequence (Q96S37 1-553): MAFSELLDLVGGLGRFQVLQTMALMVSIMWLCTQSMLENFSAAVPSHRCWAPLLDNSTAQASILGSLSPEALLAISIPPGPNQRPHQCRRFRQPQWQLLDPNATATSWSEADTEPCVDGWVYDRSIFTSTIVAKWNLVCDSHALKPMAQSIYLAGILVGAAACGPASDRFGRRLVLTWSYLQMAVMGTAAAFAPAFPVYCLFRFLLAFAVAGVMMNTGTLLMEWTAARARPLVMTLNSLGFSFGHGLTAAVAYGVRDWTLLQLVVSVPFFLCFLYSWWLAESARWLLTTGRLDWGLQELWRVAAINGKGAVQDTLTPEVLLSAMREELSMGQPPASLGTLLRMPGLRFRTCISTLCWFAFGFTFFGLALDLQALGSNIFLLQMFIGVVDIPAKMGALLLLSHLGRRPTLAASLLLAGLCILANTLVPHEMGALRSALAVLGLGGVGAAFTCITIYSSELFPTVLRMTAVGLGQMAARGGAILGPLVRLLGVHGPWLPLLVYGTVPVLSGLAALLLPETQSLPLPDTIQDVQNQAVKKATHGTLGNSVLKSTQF
# Assay: URAT1 inhibitory effect, [8-14C] uric acid uptake
# Format: cell-based
# Conditions: test compound 100 μmol/L, 20 μmol/L uric acid, 5 minutes uptake
# From the text: DMEM containing 10% FBS (supplemented with 0.05% geneticin, Nissui Pharmaceutical Co., Ltd.), HEK293 cells forced to express URAT1 (HCS (Human cell Systems), (Fuji Biomedix)), HBSS as washing buffer and HBSS substituted with Na-gluconate (NaCl in HBSS was substituted with Na-gluconate) were used for assay. [8-^14C] uric acid (moravek) was used as an uric acid reagent and added to assay buffer at 20 μmol/L as a final concentration. Compounds of the present invention were used as a test compound, 20 mmol/L stock solution of each test compound (DMSO solution) was diluted appropriately, and then the diluted test compound solution was added to assay buffer at 100 μmol/L as a final concentration including 0.5% final concentration of DMSO.
# To prepare assay plates, at first, cells on subculture petri dish were peeled off using treatment of 0.05% trypsin-EDTA solution, and then seeded on Biocoat Poly-D-Lysine Cellware 24 well plate (BECTON DICKINSON) at a density of 2×10^5 cells/well and cultured for 2 days.
# For the uptake study, at first, culture medium was removed by aspiration and cells were washed twice with HBSS (37° C.), then the buffer was replaced with 1 mL of assay buffer (37° C.). Cells were pre-incubated for 10 minutes. And then, the buffer was removed by aspiration and 0.5 mL of radioisotope ligand solution incubated at 37° C. was added, then cells were incubated for 5 minutes. After uptake, radioisotope solution was removed by aspiration, and immediately cells were washed three times with ice-cold HBSS, followed by resolving by addition of 0.5 mL of 0.5 mol/L NaOH. Cell lysate solution was transferred to a vial or 24 well plate for Betaplate, and mixed with 0.5 mL of liquid scintillator (Optiphase ‘Super Mix’; Perkin Elmer). Radioisotope activity was measured (using Betaplate 1450). As mean count in control solution not including test compound was 100%, percent inhibition was calculated by determining percent decrease in mean count in solution including test compound from mean count in control solution.
row,SMILES,inhibition at 100 µM [%]
1,Cc1ccsc1-c1cn(-c2ccc(C(=O)O)cc2)cc1C#N [XO-B407],55.5
2,N#Cc1cn(-c2ccc(C(=O)O)cc2)nc1-c1ccsc1 [XO-TT571],70.8
3,N#Cc1cn(-c2ccc(C(=O)O)cc2)cc1-c1cccs1 [XO-B401],59.5
4,N#Cc1cn(-c2ccc(C(=O)O)cc2)cc1-c1ccc2c(c1)OCCO2 [XO-B434],68.8
5,N#Cc1cn(-c2ccc(C(=O)O)cc2)nc1-c1cccs1 [XO-TT508],67.1
6,N#Cc1cn(-c2ccc(C(=O)O)cc2)cc1-c1ccsc1 [XO-B418],62.6

# Next, values leading:
row,inhibition at 100 µM [%],SMILES
1,92.3,Cc1ccc2c(c1)c(C#N)cn2-c1ccc(C(=O)O)cc1 [XO-CH164]
2,93.9,COc1ccc2c(C#N)cn(-c3ccc(C(=O)O)cc3)c2c1 [XO-CH207]
3,93.8,N#Cc1cn(-c2ccc(C(=O)O)cc2)c2ccc(Cl)cc12 [XO-CH160]
4,97.1,N#Cc1cn(-c2ccc(C(=O)O)cc2)c2cc(Cl)ccc12 [XO-CH209]
5,92.4,N#Cc1cn(-c2ccc(C(=O)O)cc2)c2ncc(Br)cc12 [XO-KT16]
6,81.1,COc1cccc2c1c(C#N)cn2-c1ccc(C(=O)O)cc1 [XO-CH211]
7,91.5,N#Cc1cn(-c2ccc(C(=O)O)cc2)c2cc3c(cc12)OCO3 [XO-CH199]
8,88.6,N#Cc1cn(-c2ccc(C(=O)O)cc2)c2cccc(Cl)c12 [XO-CH201]

# Biological target: T2, xanthine oxidase (from buttermilk) (Bos taurus, UniProt P80457)
# T2 construct: xanthine oxidase (from buttermilk; biozyme laboratories); purchased biozyme laboratories; host or cells: buttermilk (natural source)
# Assay: Xanthine oxidase inhibitory effect
# Format: biochemical
# Conditions: 100 μmol/L xanthine, 5 mU/mL enzyme; read-out: X.O. inhibition IC50
# Protocol: Assay for inhibition of xanthine oxidase was performed in 100 μmol/L substrate concentration (final concentration), 5 mU/mL enzyme concentration (final concentration) and compounds of the present invention as test compounds which were prepared with xanthine oxidase (from buttermilk; biozyme laboratories), xanthine (Sigma) and phosphate-buffered saline (PBS). In addition, all test compounds were frozen for preservation in condition of 20 mmol/L DMSO solution and used for experiments after thawing at need. Method is following: after diluted solution of test compound was added to 90 μL of 11.1 mU/mL enzyme solution, the mixture was incubated for 10 minutes after mixing. To start reaction, 100 μL of 200 μmol/L substrate solution was added to there, 10 minutes later, the reaction was stopped by addition of 500 μL of 0.5 mol/L sulfuric acid, and then absorbance at […] was measured. Final concentration of test compound was a single concentration, 10 μmol/L in single well for initial screening and 6 concentrations, 10, 1 μmol/L, 100, 10, 1 nmol/L, 100 pmol/L in duplicate for assay to calculate 50% inhibitory concentration (IC50) which were used for assay. Percent inhibition was calculated according to the formula described below. Percent inhibition (%)=(A−B)/(A−C)×100
# In formula, A means absorbance in wells without test compound, B means absorbance in wells with test compound, C means absorbance in blank wells.
# IC50 value was calculated from percent inhibition in each concentration by nonlinear regression method.
# T2 sequence (P80457 whole entry): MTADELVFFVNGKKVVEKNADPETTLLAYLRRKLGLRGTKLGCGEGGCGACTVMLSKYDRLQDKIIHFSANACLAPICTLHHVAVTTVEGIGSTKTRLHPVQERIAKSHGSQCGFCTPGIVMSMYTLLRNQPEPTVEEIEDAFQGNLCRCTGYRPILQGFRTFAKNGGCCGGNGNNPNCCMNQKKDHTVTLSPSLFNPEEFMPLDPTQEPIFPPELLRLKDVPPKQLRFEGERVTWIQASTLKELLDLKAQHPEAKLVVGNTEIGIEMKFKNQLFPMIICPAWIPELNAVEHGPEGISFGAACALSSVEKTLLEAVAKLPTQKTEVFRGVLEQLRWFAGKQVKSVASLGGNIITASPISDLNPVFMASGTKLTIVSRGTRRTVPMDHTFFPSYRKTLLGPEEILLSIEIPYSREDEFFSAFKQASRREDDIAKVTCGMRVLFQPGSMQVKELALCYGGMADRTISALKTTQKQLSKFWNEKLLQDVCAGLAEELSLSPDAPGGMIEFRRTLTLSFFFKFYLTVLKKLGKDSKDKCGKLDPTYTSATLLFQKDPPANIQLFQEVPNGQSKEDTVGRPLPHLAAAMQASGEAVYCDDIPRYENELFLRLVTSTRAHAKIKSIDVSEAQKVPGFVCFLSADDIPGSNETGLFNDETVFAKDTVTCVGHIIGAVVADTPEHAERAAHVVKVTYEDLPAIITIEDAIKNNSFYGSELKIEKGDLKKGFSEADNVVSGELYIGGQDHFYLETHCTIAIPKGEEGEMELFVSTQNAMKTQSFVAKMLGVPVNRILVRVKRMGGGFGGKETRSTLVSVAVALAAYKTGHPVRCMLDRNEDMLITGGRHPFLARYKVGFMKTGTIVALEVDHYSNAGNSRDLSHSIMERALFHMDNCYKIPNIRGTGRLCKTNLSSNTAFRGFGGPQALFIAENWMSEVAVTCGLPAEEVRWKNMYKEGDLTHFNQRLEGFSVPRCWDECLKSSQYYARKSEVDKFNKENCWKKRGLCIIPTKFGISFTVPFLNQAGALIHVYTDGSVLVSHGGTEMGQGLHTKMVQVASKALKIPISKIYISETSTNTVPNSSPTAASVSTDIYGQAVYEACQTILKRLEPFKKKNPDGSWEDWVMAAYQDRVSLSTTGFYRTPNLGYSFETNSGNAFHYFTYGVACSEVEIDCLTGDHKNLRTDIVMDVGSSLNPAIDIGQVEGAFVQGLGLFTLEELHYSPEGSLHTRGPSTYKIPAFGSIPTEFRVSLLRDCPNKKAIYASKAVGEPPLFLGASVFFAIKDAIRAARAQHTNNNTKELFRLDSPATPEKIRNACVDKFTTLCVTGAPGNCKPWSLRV
row,SMILES,IC50 [nM]
1,Cc1ccsc1-c1cn(-c2ccc(C(=O)O)cc2)cc1C#N [XO-B407],4.73
2,N#Cc1cn(-c2ccc(C(=O)O)cc2)nc1-c1ccsc1 [XO-TT571],4.79
3,N#Cc1cn(-c2ccc(C(=O)O)cc2)cc1-c1cccs1 [XO-B401],5.98
4,N#Cc1cn(-c2ccc(C(=O)O)cc2)cc1-c1ccc2c(c1)OCCO2 [XO-B434],3.82
5,N#Cc1cn(-c2ccc(C(=O)O)cc2)nc1-c1cccs1 [XO-TT508],3.74
6,N#Cc1cn(-c2ccc(C(=O)O)cc2)cc1-c1ccsc1 [XO-B418],4.63

# Second part, the molecule after the results:
row,IC50 [nM],SMILES
1,13.8,Cc1ccc2c(c1)c(C#N)cn2-c1ccc(C(=O)O)cc1 [XO-CH164]
2,96.5,COc1ccc2c(C#N)cn(-c3ccc(C(=O)O)cc3)c2c1 [XO-CH207]
3,26.7,N#Cc1cn(-c2ccc(C(=O)O)cc2)c2ccc(Cl)cc12 [XO-CH160]
4,60.8,N#Cc1cn(-c2ccc(C(=O)O)cc2)c2cc(Cl)ccc12 [XO-CH209]
5,99.2,N#Cc1cn(-c2ccc(C(=O)O)cc2)c2ncc(Br)cc12 [XO-KT16]
6,16.4,COc1cccc2c1c(C#N)cn2-c1ccc(C(=O)O)cc1 [XO-CH211]
7,49.1,N#Cc1cn(-c2ccc(C(=O)O)cc2)c2cc3c(cc12)OCO3 [XO-CH199]
8,50.5,N#Cc1cn(-c2ccc(C(=O)O)cc2)c2cccc(Cl)c12 [XO-CH201]
